From ChEMBL document CHEMBL4665747, “Glycosides and Glycoconjugates of the Diterpenoid Isosteviol with a 1,2,3-Triazolyl Moiety: Synthesis and Cytotoxicity Evaluation” (J Nat Prod, 2020)
Activity calls are given as the source filed them. The calls are words filed in the database; no cut-off is given here.

Legend:
M-HeLa [1] = assay: Induction of mitochondrial membrane potential loss in human HelaM cells assessed as cell population with intact mitochondrial membrane potential at 25 uM by JC-10 staining-based flow cytometric analysis (reference value: 77.48 %); assay type: functional
M-HeLa [2] = assay: Induction of mitochondrial membrane potential loss in human HelaM cells assessed as cell population with mitochondrial membrane potential collapse at 25 uM by JC-10 staining-based flow cytometric analysis (reference value: 22.17 %); assay type: functional
M-HeLa [3] = assay: Induction of mitochondrial membrane potential loss in human HelaM cells assessed as cell population with intact mitochondrial membrane potential at 10 uM by JC-10 staining-based flow cytometric analysis (reference value: 77.48 %); assay type: functional
M-HeLa [4] = assay: Induction of mitochondrial membrane potential loss in human HelaM cells assessed as cell population with mitochondrial membrane potential collapse at 10 uM by JC-10 staining-based flow cytometric analysis (reference value: 22.17 %); assay type: functional
M-HeLa [5] = assay: Induction of apoptosis in human HelaM cells assessed as viable cells at 25 uM after 24 hrs by V-FITC/propidium iodide staining-based flow cytometric analysis (reference value: 93.33 %); assay type: functional; settings: read-out: Activity
M-HeLa [6] = assay: Induction of apoptosis in human HelaM cells assessed as necrotic cells at 25 uM after 24 hrs by V-FITC/propidium iodide staining-based flow cytometric analysis (reference value: 4.55 %); assay type: functional
M-HeLa [7] = assay: Induction of apoptosis in human HelaM cells assessed as late apoptotic cells at 25 uM after 24 hrs by V-FITC/propidium iodide staining-based flow cytometric analysis (reference value: 0.62 %); assay type: functional
M-HeLa [8] = assay: Induction of apoptosis in human HelaM cells assessed as early apoptotic cells at 25 uM after 24 hrs by V-FITC/propidium iodide staining-based flow cytometric analysis (reference value: 1.5 %); assay type: functional
M-HeLa [9] = assay: Induction of apoptosis in human HelaM cells assessed as viable cells at 10 uM after 24 hrs by V-FITC/propidium iodide staining-based flow cytometric analysis (reference value: 93.33 %); assay type: functional; settings: read-out: Activity
M-HeLa [10] = assay: Induction of apoptosis in human HelaM cells assessed as necrotic cells at 10 uM after 24 hrs by V-FITC/propidium iodide staining-based flow cytometric analysis (reference value: 4.55 %); assay type: functional
M-HeLa [11] = assay: Induction of apoptosis in human HelaM cells assessed as late apoptotic cells at 10 uM after 24 hrs by V-FITC/propidium iodide staining-based flow cytometric analysis (reference value: 0.62 %); assay type: functional
M-HeLa [12] = assay: Induction of apoptosis in human HelaM cells assessed as early apoptotic cells at 10 uM after 24 hrs by V-FITC/propidium iodide staining-based flow cytometric analysis (reference value: 1.5 %); assay type: functional
[13] = Selectivity index, ratio of IC50 for human chang liver cells to IC50 for human HelaM cells
[14] = Cytotoxicity against human Chang liver cells assessed as reduction in cell viability after 24 hrs by DAPI staining-based fluorescence assay
WI-38 = assay: Cytotoxicity against human WI-38 cells assessed as reduction in cell viability after 24 hrs by DAPI staining-based fluorescence assay; settings: WI-38, 24 h
MCF7 = assay: Cytotoxicity against human MCF7 cells assessed as reduction in cell viability after 24 hrs by DAPI staining-based fluorescence assay; assay type: functional; settings: MCF7, 24 h
M-HeLa [15] = assay: Cytotoxicity against human HelaM cells assessed as reduction in cell viability after 24 hrs by DAPI staining-based fluorescence assay; assay type: functional
M-HeLa [16] = assay: Induction of apoptosis in human HelaM cells assessed as increase in caspase-9 level at 10 uM incubated for 24 hrs; assay type: functional, cell-based
M-HeLa [17] = assay: Induction of apoptosis in human HelaM cells assessed as increase in p53 level at 10 uM incubated for 24 hrs; assay type: functional, cell-based
M-HeLa [18] = assay: Induction of apoptosis in human HelaM cells assessed as increase in caspase-8 level at 10 uM incubated for 24 hrs; assay type: functional, cell-based
M-HeLa [19] = assay: Induction of apoptosis in human HelaM cells assessed as increase in Bcl2 level at 10 uM incubated for 24 hrs; assay type: functional, cell-based
M-HeLa [20] = assay: Induction of apoptosis in human HelaM cells assessed as increase in Bad level at 10 uM incubated for 24 hrs; assay type: functional, cell-based
M-HeLa [21] = assay: Induction of apoptosis in human HelaM cells assessed as increase in Akt level at 10 uM incubated for 24 hrs; assay type: functional, cell-based
M-HeLa [22] = assay: Induction of apoptosis in human HelaM cells assessed as increase in JNK level at 10 uM incubated for 24 hrs; assay type: functional, cell-based

`CC(=O)O[C@@H]1[C@H](OC(C)=O)[C@H](OC(C)=O)CO[C@H]1n1cc(COC(=O)[C@]2(C)CCC[C@@]3(C)[C@@H]4CC[C@@]5(C)C[C@]4(CC[C@@H]32)CC5=O)nn1` showed an Activity (M-HeLa [1]) of 13.46%, an Activity (M-HeLa [2]) of 86.44% and an Activity (M-HeLa [3]) of 59.62%. It also gave an Activity (M-HeLa [4]) of 40.23%, a viability at 25 µM (M-HeLa [5]) of 79.2% and an Activity (M-HeLa [6]) of 0.66%. It also gave an Activity (M-HeLa [7]) of 11.59%, an Activity (M-HeLa [8]) of 8.57% and a viability at 10 µM (M-HeLa [9]) of 81.9%. It also gave an Activity (M-HeLa [10]) of 0.34%, an Activity (M-HeLa [11]) of 8.21% and an Activity (M-HeLa [12]) of 9.53%. The “Ratio IC50” value [13] was over 59, the IC50 [14] was over 100 µM and the IC50 (WI-38) was 40 µM. The IC50 (MCF7) was over 10 µM and the IC50 (M-HeLa [15]) was 1.7 µM.

For `CC(=O)OC[C@H]1O[C@@H](n2cc(COC(=O)[C@]3(C)CCC[C@@]4(C)[C@@H]5CC[C@@]6(C)C[C@]5(CC[C@@H]43)CC6=O)nn2)[C@H](OC(C)=O)[C@@H]1OC(C)=O`, the Activity (M-HeLa [1]) was 9.86%, the Activity (M-HeLa [2]) was 90.09% and the Activity (M-HeLa [3]) was 55.17%. The Activity (M-HeLa [4]) was 44.73%, the viability at 25 µM (M-HeLa [5]) was 53.9% and the Activity (M-HeLa [6]) was 0%. It also gave an Activity (M-HeLa [7]) of 23.66%, an Activity (M-HeLa [8]) of 22.44% and a viability at 10 µM (M-HeLa [9]) of 67.3%. The Activity (M-HeLa [10]) was 0.03%, the Activity (M-HeLa [11]) was 20.94% and the Activity (M-HeLa [12]) was 11.71%. The “Ratio IC50” value [13] was over 53, the IC50 [14] was over 100 µM and the IC50 (WI-38) was over 100 µM. The IC50 (MCF7) was over 10 µM and the IC50 (M-HeLa [15]) was 1.9 µM.

In the case of `CC(=O)OC[C@H]1O[C@@H](n2cc(COC(=O)[C@]3(C)CCC[C@@]4(C)[C@@H]5CC[C@@]6(C)C[C@]5(CC[C@@H]43)CC6=O)nn2)[C@H](OC(C)=O)[C@@H](OC(C)=O)[C@H]1OC(C)=O`, the Activity (M-HeLa [16]) is reported as “Active”, the Activity (M-HeLa [17]) is reported as “Active” and the Activity (M-HeLa [18]) is reported as “Active”. For the same compound, the Activity (M-HeLa [19]) was “Active”, the Activity (M-HeLa [20]) was “Active” and the Activity (M-HeLa [21]) was “Active”. The Activity (M-HeLa [22]) was “Active”, the Activity (M-HeLa [1]) was 15.35% and the Activity (M-HeLa [2]) was 84.65%. For the same compound, the Activity (M-HeLa [3]) was 59.16%, the Activity (M-HeLa [4]) was 40.74% and the viability at 25 µM (M-HeLa [5]) was 77.7%. It also gave an Activity (M-HeLa [6]) of 1.26%, an Activity (M-HeLa [7]) of 11.5% and an Activity (M-HeLa [8]) of 9.53%. It also gave a viability at 10 µM (M-HeLa [9]) of 82%, an Activity (M-HeLa [10]) of 0.91% and an Activity (M-HeLa [11]) of 9.09%. For the same compound, the Activity (M-HeLa [12]) was 7.95%, the “Ratio IC50” value [13] was over 56 and the IC50 [14] was over 100 µM. The IC50 (WI-38) was 69.7 µM, the IC50 (MCF7) was over 10 µM and the IC50 (M-HeLa [15]) was 1.8 µM.

With `CC(=O)OC[C@H]1O[C@@H](n2cc(COC(=O)[C@]3(C)CCC[C@@]4(C)[C@@H]5CC[C@@]6(C)C[C@]5(CC[C@@H]43)CC6=O)nn2)[C@H](OC(C)=O)[C@@H](OC(C)=O)[C@@H]1OC(C)=O` the “Ratio IC50” value [13] was 8.5, the IC50 [14] was 68.3 µM and the IC50 (WI-38) was 36 µM. For the same compound, the IC50 (MCF7) was over 10 µM and the IC50 (M-HeLa [15]) was 8 µM.

Work on `COc1cccc2c1C(=O)c1c(O)c3c(c(O)c1C2=O)C[C@@](O)(C(=O)CO)C[C@@H]3O[C@H]1C[C@H](N)[C@H](O)[C@H](C)O1` [DOXORUBICIN] yielded an IC50 [14] of 3 µM.
